The record followed here is publication PMC11215778 (Journal of Medicinal Chemistry, 2024).

One data set relates to P-gp (human MDR1). Description: in vitro. Particulars: dog, MDCK-MDR1.
Data set [1] can be described thus: in vitro. Particulars: dog, MDCK-MDR1.
Description: (§1) Canine MDR1 Knockout, Human MDR1 Knockin MDCKII cells (Sigma-Aldrich) were employed to estimate CNS permeability of the compounds. Briefly, the cells were seeded at a density of 30,000 cells per 24-well plate insert of the Transwell sandwich (CellQART, SABEU GmbH&Co.KG, Germany). They were left to differentiate for 5 days with medium exchange every other day. […] The treated cells were then returned to the incubator for 2 h at 37 °C. After that, samples were collected from both apical inserts and basolateral wells and analyzed using LC–MS (Triple Quad 6500+, Sciex). LY permeation was used to check for the integrity of monolayer in each sample. […] Only wells displaying LY permeability <2% were qualified for compound transport quantification. Apparent permeability coefficients (Papp's), efflux ratios, and recoveries for the compounds were calculated as described in Section 4.2.8. The data represent means ± SD of two independent experiments performed in triplicate.
The nature of data set [2]: Plasma stability assay, human plasma. The format is in vitro ADME. The conditions noted are these: pooled plasma; human plasma, 5 μM, 37 °C; read-out: Plasma stability % remaining at 6 h, hum. The procedure:
[…] The reactions were terminated by adding 4 vol of ice-cold methanol, and the samples were then mixed vigorously, frozen at −20 °C for 1 h, and left overnight at 8 °C. After that, the samples were centrifuged, and the supernatant was analyzed by means of LC–MS/MS Sciex 6500 triple quadrupole (Sciex, Framingham, MA, USA). Zero time points were prepared by adding ice-cold methanol to the compound prior to the addition of the plasma.

Data set [3] can be described thus: in vitro. It is filed as in vitro ADME. The conditions noted are these: human, Caco-2. As for the experimental part:
A Transwell system consisting of two compartments separated by a monolayer of differentiated Caco-2 cells was employed for the intestinal permeability evaluation. Thanks to the ability of Caco-2 cells to become polarized, bidirectional transport (A–B and B–A) could be measured and the efflux ratio calculated.
The transepithelial bidirectional transport of tested compounds (5 μM, pH 7.4/7.4) across the Caco-2 monolayers was studied using the BD BioCoat HTS Caco-2 assay system (BD Biosciences, Bedford, MA) as described in detail elsewhere.[47] Aliquots were collected from the donor and acceptor compartment at the end of the transport period (3 h), the integrity of monolayers was verified using Lucifer Yellow dye, and the compounds were quantified using LC–MS/MS (Triple Quad 6500+, Sciex). The apparent permeability coefficient (Papp) was calculated from the following equation: Papp = (dQ/dt)/C0 × A, where dQ/dt is the rate of absorption of the drug across the cells, C0 is the donor compartment concentration at time zero, and A is the area of the monolayer. The efflux ratio was expressed as (Papp B–A)/(Papp A–B). Recovery (%) was determined as (total compound mass in donor and receiver compartments at the end of the incubation/initial compound mass in the donor compartment) × 100.

The nature of data set [4]: Microsomal stability, human liver microsomes. It is filed as in vitro ADME. The conditions noted are these: pooled liver microsomes, pH 7.4; human liver microsomes 0.5 mg/mL, 10 μM compound; read-out: Microsomal stability CLint, hum. The procedure:
. Zero time points were prepared by adding ice-cold methanol to a mixture of the compound with cofactors prior to the addition of microsomes. […]. Intrinsic clearance (CLint) was calculated using the following formula: [drawing 1] where V = incubation volume per milligram of microsomal protein (μL/mg) and t1/2 = microsomal half-life.

Data set [5] can be described thus: Plasma stability assay, rat plasma. The format is in vitro ADME.
The nature of data set [6]: Cytotoxicity assay (CellTiter-Glo) on normal human dermal fibroblasts. It is filed as cell-based. Particulars: normal human dermal fibroblasts (NHDF). As for the experimental part:
The cytotoxicity of the compounds was evaluated in nontumor normal human dermal fibroblasts (NHDF) purchased from ATCC (PCS-201-012, Manassas, VA, USA). The cells were negatively tested for the presence of mycoplasma (cat. #: LT07-318 MycoAlert Mycoplasma Detection kit, Lonza). The cells were cultivated in DMEM high glucose 4.5 g/L medium (cat. #: R8758, Merck, Germany). The medium was supplemented with 10% fetal bovine serum (cat. #: F7524, Merck, Germany; inactivated at 56 °C for 30 min) and 1.0% of L-glutamine (cat. #: G7513, Merck, Germany) without antibiotics. Cells were seeded in 384-well format white micro plates (cat. #: 164610, Nunc, Thermo Fisher Scientific, USA) at a concentration of 60,000 cells per mL and left to rest overnight. Next day, 1 and 10 μM concentrations of the tested compounds were added in triplicates. The cells were cultivated at 37 °C and 5% CO2 for 72 h after which a luminescent cell viability assay (CellTiter-Glo 2.0, cat. #: Promega, Madison, USA) was added. The plate was left on a shaker (350 rpm) in the dark for 20 min at RT. Luminescence was measured by a Spark multimode reader from Tecan (Tecan Group Ltd., Switzerland). The signal of the compound-treated cells was related to the value of the untreated control, which was arbitrarily set to 100% viability.

Where two headings read alike, the source gives them in different places.

Description for MDCKII-MDR1 cells: as §1
Description for P-gp (human MDR1): as §1

Usually Papp A→B stands for the apparent permeability from the apical to the basolateral side of a cell layer. By Papp B→A is commonly meant the apparent permeability from the basolateral to the apical side of a cell layer. What is called fraction remaining is what is left of the initial amount, in per cent. Broadly, the microsomal CLint is the capacity of the preparation to metabolise the compound, expressed as a volume cleared per time. By viability is commonly meant a read-out of living cells in per cent, often relative to untreated cells. For the compound `N[C@H]1C[C@H](OC(=O)[C@@H]2[C@H]3C[C@H]4c5[nH]c6ccccc6c5CCN4C[C@@H]3CC[C@@H]2O)C1` [Compound 4n, 17-α-Hydroxyyohimban-16-α-carboxylic Acid trans-3-Aminocyclobutyl Ester], the “recovery (B–A) in MDCKII-MDR1 cells” value in the data set with MDCKII-MDR1 cells (B–A direction) was determined as 98%. Also, in the data set with MDCKII-MDR1 cells (MDCKII-MDR1 cells), the P-gp transporter substrate entry was “substrate for the P-gp transporter”. In the data set with P-gp (human MDR1), the Papp A→B at 2 h, 10 µM is 0.9 ×10⁻⁶ cm/s. The same compound had a Papp B→A at 2 h, 10 µM in the data set with P-gp (human MDR1) of 3.5 ± 1.4 ×10⁻⁶ cm/s. Also, the recovery at 2 h, 10 µM in “in vitro [1]” was determined as 100%. Moreover, the amount remaining at 6 h, 5 μM in data set [2] worked out at 99%; in data set [5], 84 ± 2%. Besides, in “in vitro [3]”, the recovery at 3 h, 5 µM was found to be 103%. The Papp A→B at 3 h, 5 µM in “in vitro [3]” (5 μM, pH 7.4/7.4, 3 h, read-out: Caco-2 permeability Papp A–B) was determined as 3 ± 1 ×10⁻⁶ cm/s. Moreover, the microsomal CLint at 10 µM in data set [4] was 2 ± 1 µL/min/mg. This compound displayed a viability at 72 h, 1 µM in data set [6] (1 uM) of 93%. For the same compound, the viability at 72 h, 10 µM in data set [6] (10 uM, read-out: NHDF viability at 10 uM (supplement csv)) was determined as 89%; in data set [6] (10 μM, untreated control = 100%, read-out: NHDF Viability 10 μM), 89%.
